Data as given in patent US4256761A, “Antihypertensive amides” (USV Pharmaceutical Corporation, priority 1979, dated 1981).

Key:
[1] = test system: angiotensin I-induced hypertensive rats; assay: oral antihypertensive activity in angiotensin I-induced hypertensive rats; assay type: in vivo; conditions: Rattus norvegicus, dose for 50% reduction in angiotensin I-induced hypertension, read-out: I50 (ID50, antihypertensive activity)
[2] = target: T1, angiotensin converting enzyme (Oryctolagus cuniculus, UniProt P12822); assay: angiotensin converting enzyme inhibition (ACEI activity), method of Science 196, 441-4 (1977); assay type: biochemical; conditions: amount required for 50% inhibitive effect, read-out: I50 (ACEI activity)
T1 sequence (P12822 34-1310): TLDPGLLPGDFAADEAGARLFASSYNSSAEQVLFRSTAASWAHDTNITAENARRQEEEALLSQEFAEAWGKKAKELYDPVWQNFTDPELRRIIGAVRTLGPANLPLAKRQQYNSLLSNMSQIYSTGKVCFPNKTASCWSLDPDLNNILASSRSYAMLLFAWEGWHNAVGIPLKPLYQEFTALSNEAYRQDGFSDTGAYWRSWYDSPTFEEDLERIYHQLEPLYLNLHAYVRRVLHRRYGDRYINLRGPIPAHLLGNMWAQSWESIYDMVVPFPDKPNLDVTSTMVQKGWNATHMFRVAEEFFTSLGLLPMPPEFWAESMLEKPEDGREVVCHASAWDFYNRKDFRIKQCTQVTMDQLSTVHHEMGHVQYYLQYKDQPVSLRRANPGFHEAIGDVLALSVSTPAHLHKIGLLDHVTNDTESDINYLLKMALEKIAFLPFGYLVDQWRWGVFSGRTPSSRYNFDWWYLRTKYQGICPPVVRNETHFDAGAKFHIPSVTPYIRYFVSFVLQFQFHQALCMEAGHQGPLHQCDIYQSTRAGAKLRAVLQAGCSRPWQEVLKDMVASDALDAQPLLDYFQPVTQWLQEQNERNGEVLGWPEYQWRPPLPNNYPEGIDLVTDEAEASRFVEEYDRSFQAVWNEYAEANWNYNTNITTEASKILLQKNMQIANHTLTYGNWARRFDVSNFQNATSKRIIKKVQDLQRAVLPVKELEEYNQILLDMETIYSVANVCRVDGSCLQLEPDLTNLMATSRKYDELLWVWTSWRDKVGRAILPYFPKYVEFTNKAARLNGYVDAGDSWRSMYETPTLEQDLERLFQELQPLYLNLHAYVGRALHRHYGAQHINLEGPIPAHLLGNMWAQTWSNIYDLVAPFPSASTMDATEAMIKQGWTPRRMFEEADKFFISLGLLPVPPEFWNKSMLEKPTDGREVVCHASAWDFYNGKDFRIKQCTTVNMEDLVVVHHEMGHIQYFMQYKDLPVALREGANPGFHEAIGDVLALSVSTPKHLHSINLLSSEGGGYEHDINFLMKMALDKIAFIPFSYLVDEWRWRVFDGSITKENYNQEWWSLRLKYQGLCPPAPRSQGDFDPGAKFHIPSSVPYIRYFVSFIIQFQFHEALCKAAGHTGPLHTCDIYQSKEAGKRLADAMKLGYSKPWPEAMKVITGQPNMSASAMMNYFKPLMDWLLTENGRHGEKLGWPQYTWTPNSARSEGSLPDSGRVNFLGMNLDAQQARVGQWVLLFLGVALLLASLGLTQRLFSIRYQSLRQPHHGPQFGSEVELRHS
Text: The I50 value represents the amount in micromols required to give an inhibitive effect of 50% in the tests using the procedure described in the Science article.

In the case of `CC(CS)C(=O)N(CC(=O)O)C1Cc2ccccc2C1` (centres unmarked) [2-Indanyl H, N-(3-Mercapto-2-methylpropanoyl)-N-(indan-2-yl)glycine], the ED50 [1] is reported as 0.16 mg/kg.
`CC(=O)SCC(C)C(=O)N(CC(=O)O)C1CCCCCC1` (centres unmarked) [Cycloheptyl CH3 CO, N-(3-Acetylthio-2-methylpropanoyl)-N-cycloheptylglycine] was tested, and the IC50 [2] was 88 nM.
`CC(CS)C(=O)N(CC(=O)O)C1CCCCCC1` (centres unmarked) [Cycloheptyl H, N-(3-Mercapto-2-methylpropanoyl)-N-cycloheptylglycine] showed an ED50 [1] of 0.021 mg/kg.
Work on `CC(=O)SCC(C)C(=O)N(CC(=O)O)C1CCCC1` (centres unmarked) [Cyclopentyl CH3 CO, N-(3-Acetylthio-2-methylpropanoyl)-N-cyclopentylglycine] yielded an ED50 [1] of 0.16 mg/kg and an IC50 [2] of 44 nM.
`CC(CS)C(=O)N(CC(=O)O)C1CCCC1` (centres unmarked) [Cyclopentyl H, N-(3-Mercapto-2-methylpropanoyl)-N-cyclopentylglycine] gave an ED50 [1] of 0.15 mg/kg.
`CC(=O)SCC(C)C(=O)N(CC(=O)O)C1CC1` (centres unmarked) [Cyclopropyl CH3 CO, N-(3-Acetylthio-2-methylpropanoyl)-N-(cyclopropyl)glycine] gave an ED50 [1] of 0.13 mg/kg.
Molecule `CC(CS)C(=O)N(CC(=O)O)C1CC1` (centres unmarked) [Cyclopropyl H, N-(3-Mercapto-2-methylpropanoyl)-N-cyclopropylglycine] has an ED50 [1] of 0.14 mg/kg and an IC50 [2] of 27 nM.
`CC(CS)C(=O)N(CC(=O)O)C1CCC1` (centres unmarked) [Cylcobutyl H, N-(3-Mercapto-2-methylpropanoyl)-N-cyclobutylglycine] was tested, and the ED50 [1] was 0.21 mg/kg.
Molecule `COCCN(CC(=O)O)C(=O)C(C)CS` (centres unmarked) [H3 CO(CH2)2 H] has an IC50 [2] of 95 nM.
For `CSCCCN(CC(=O)O)C(=O)C(C)CS` (centres unmarked) [H3 CS(CH2)3 H, N-(3-Mercapto-2-methylpropanoyl)-N-(3-methylthiopropyl)glycine], the IC50 [2] was 55 nM.
Work on `CC(=O)SCC(C)C(=O)N(CC(=O)O)c1ccccc1` (centres unmarked) [Phenyl CH3 CO, N-(3-Acetylthio-2-methylpropanoyl)-N-phenylglycine] yielded an ED50 [1] of 0.23 mg/kg.
Work on `CC(=O)SCC(C)C(=O)N(CC(=O)O)[C@@H]1C[C@H]2CC[C@@H]1C2` (stereo partly drawn) [exo-Norbornyl CH3 CO, N-(3-Acetylthio-2-methylpropanoyl)-N-(exo-norbornyl)glycine] yielded an ED50 [1] of 0.06 mg/kg and an IC50 [2] of 22 nM.
`CC(CS)C(=O)N(CC(=O)O)[C@@H]1C[C@H]2CC[C@@H]1C2` (stereo partly drawn) [exo-Norbornyl H, N-(3-Mercapto-2-methylpropanoyl)-N-(exo-norbornyl)glycine] was tested, and the ED50 [1] was 0.11 mg/kg and the IC50 [2] was 25 nM.
